Measurements as given in EP4650353A1 (Shanghai Institute of Materia Medica, Chinese Academy of …, priority 2023, dated 2024).
Read-outs that look alike come from different tables or passages of the source.

Target: T1, human GLP-1 receptor (Homo sapiens, UniProt P43220)
T1 construct: HA (N); expressed in transfected cells
Experiment: GLP-1 receptor-mediated agonist activity: cAMP level in hGLP-1R/HEK293 cell line (HTRF)
Type: cell-based

[1] = cAMP levels in hGLP-1R/HEK293 cell line, Table 1, read-out: determined EC50
[2] = cAMP levels of the hGLP-1R/HEK293 cell line, Table 2, comparison with reference compounds, read-out: EC50

T1 sequence (P43220 24-463): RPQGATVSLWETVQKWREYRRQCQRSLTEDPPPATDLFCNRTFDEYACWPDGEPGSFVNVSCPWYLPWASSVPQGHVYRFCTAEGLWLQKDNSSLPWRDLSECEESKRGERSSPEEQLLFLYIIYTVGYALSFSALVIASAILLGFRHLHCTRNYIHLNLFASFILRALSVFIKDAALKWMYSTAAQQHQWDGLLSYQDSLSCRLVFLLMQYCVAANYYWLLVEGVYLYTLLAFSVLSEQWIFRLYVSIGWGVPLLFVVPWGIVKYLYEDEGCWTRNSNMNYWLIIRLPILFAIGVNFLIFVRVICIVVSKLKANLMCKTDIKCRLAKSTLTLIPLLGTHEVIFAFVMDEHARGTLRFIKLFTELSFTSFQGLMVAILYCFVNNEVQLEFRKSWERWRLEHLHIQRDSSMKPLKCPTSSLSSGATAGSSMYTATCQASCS
Method: The hGLP-1R/HEK293 cells were digested, centrifuged and resuspended in culture medium (DMEM+0.2% BSA, m/v), and the cell density was adjusted to 2×10^5 cells/mL. IBMX (3-isobutyl-1-methylxanthine, final concentration of 0.5 mM) was added to the cell suspension and added to a 384-well plate at 5 µL (1×10^3 cells)/well. The compound was dissolved in DMSO to prepare a stock solution with a concentration of 10 mM. The experiment started with a concentration of 100 µM which was diluted 10 times in a series of 7 dilution points, with the 8th point being DMSO. 2 µL of the test compound of different concentrations was added to 98 µL of culture medium, shaken and mixed, 5 µL was taken and added to a 384-well plate (final concentration of the test compound was 0-100 nM, final concentration of DMSO was 1%, v/v), which was then incubated in the incubator (37°C, 5% CO2) in the dark for 30 min, then 10 µL of cAMP detection reagent (LANCE Ultra cAMP Detecion Kit, PerkinElmer, #TRF0264) was added, mixed well, and reacted at room temperature in the dark for 1 h. After the reaction was completed, the HTRF signal was read using the Envision 2104 multi-function microplate reader. All samples were tested in triplicate wells, and the ratio of the acceptor-donor excitation signal in each single well was calculated using the formula Ratio = Signal 665nM/Signal 620nM. The HTRF signal ratio and the corresponding compound concentration were analyzed and processed using GraphPad Prism 8 software, and the EC50 value of the compound was obtained by fitting the S-type dose-response curve and calculating.

| Compound | EC50 [1] | EC50 [2] |
| --- | --- | --- |
| 4-methoxy-2-((4-(2-(2-methoxy-4-(trifluoromethyl)phenyl)-2-methylbenzo[d][1,3]dioxol-4-yl)piperidin-1-yl)methyl)-1-((S)-oxetan-2-yl)methyl]-1H-benzo[d]imidazole-6-carboxylic acid [Compound 59] | 3.1 pM | – |
| N#Cc1ccc(COc2cccc(C3CCN(Cc4nc5ccc(C(=O)O)cc5n4C[C@@H]4CCO4)CC3)n2)c2occc12 [CN113480534 , Compound 3, reference compound] | – | 12.7 pM |
| CC1(c2ccc(Cl)cn2)Oc2cccc(N3C=NN(Cc4nc5ccc(C(=O)O)cc5n4C[C@@H]4CCO4)CC3)c2O1 (some centres unmarked) [CN2022114139828 , Compound 36, reference compound] | – | 336 pM |
| CC1(c2ccc(Cl)cc2F)Oc2cccc(N3C=NN(Cc4nc5ccc(C(=O)O)cc5n4C[C@@H]4CCO4)CC3)c2O1 (some centres unmarked) [CN2022114139828 , Compound 37, reference compound] | – | 137 pM |
| COc1cc(C(=O)O)cc2c1nc(CN1CCC(c3cccc(OCc4ccc(C#N)cc4F)n3)CC1)n2C[C@@H]1CCO1 [Compound 1, (S)-2-((4-(6-((4-cyano-2-fluorobenzyl)oxy)pyridin-2-yl)piperidin-1-yl)methyl)-4-methoxy-1-(oxetan-2-ylmethyl)-1H-benzo[d]imidazole-6-carboxylic acid] | 4.8 pM | – |
| CCOc1cc(C(=O)O)cc2c1nc(CN1CCC(c3cccc(OCc4ccc(C#N)cc4F)n3)CC1)n2C[C@@H]1CCO1 [Compound 2, (S)-2-((4-(6-((4-cyano-2-fluorobenzyl)oxy)pyridin-2-yl)piperidin-1-yl)methyl)-4-ethoxy-1-(oxetan-2-ylmethyl)-1H-benzo[d]imidazole-6-carboxylic acid] | 1.1 pM | – |
| N#Cc1ccc(COc2cccc(C3CCN(Cc4nc5c(OCC6CC6)cc(C(=O)O)cc5n4C[C@@H]4CCO4)CC3)n2)c(F)c1 [Compound 5, (S)-2-((4-(6-((4-cyano-2-fluorobenzyl)oxy)pyridin-2-yl)piperidin-1-yl)methyl)-4-(cyclopropylmethoxy)-1-(oxetan-2-ylmethyl)-1H-benzo[d]imidazole-6-carboxylic acid] | 12 pM | – |
| COc1cc(C(=O)O)cc2c1nc(CN1CCN(c3cccc(OCc4ccc(C#N)cc4F)n3)C=N1)n2C[C@@H]1CCO1 [Compound 8, (S)-2-((4-(6-((4-cyano-2-fluorobenzyl)oxy)pyridin-2-yl)-5,6-dihydro-1,2,4-triazin-1(4H)-yl)methyl)-4-methoxy-1-(oxetan-2-ylmethyl)-1H-benzo[d]imidazole-6-carboxylic acid] | 3.4 pM | – |
| CCCOc1cc(C(=O)O)cc2c1nc(CN1CCN(c3cccc(OCc4ccc(C#N)cc4F)n3)C=N1)n2C[C@@H]1CCO1 [Compound 10, (S)-2-((4-(6-((4-cyano-2-fluorobenzyl)oxy)pyridin-2-yl)-5,6-dihydro-1,2,4-triazin-1(4H)-yl)methyl)-1-(oxetan-2-ylmethyl)-4-propoxy-1H-benzo[d]imidazole-6-carboxylic acid] | 4.9 pM | – |
| N#Cc1ccc(COc2cccc(N3C=NN(Cc4nc5c(OC(F)F)cc(C(=O)O)cc5n4C[C@@H]4CCO4)CC3)n2)c(F)c1 [Compound 11, (S)-2-((4-(6-((4-cyano-2-fluorobenzyl)oxy)pyridin-2-yl)-5,6-dihydro-1,2,4-triazin-1(4H)-yl)methyl)-4-(difluoromethoxy)-1-(oxetan-2-ylmethyl)-1H-benzo[d]imidazole-6-carboxylic acid] | 13.3 pM | – |
| [2H]C([2H])([2H])Oc1cc(C(=O)O)cc2c1nc(CN1CCN(c3cccc(OCc4ccc(C#N)cc4F)n3)C=N1)n2C[C@@H]1CCO1 [Compound 12, (S)-2-((4-(6-((4-cyano-2-fluorobenzyl)oxy)pyridin-2-yl)-5,6-dihydro-1,2,4-triazin-1(4H)-yl)methyl)-4-(methoxy-d3)-1-(oxetan-2-ylmethyl)-1H-benzo[d]imidazole-6-carboxylic acid] | 4 pM | – |
| N#Cc1ccc(COc2cccc(N3C=NN(Cc4nc5c(OC6CC6)cc(C(=O)O)cc5n4C[C@@H]4CCO4)CC3)n2)c(F)c1 [Compound 13, (S)-2-((4-(6-((4-cyano-2-fluorobenzyl)oxy)pyridin-2-yl)-5,6-dihydro-1,2,4-triazin-1(4H)-yl)methyl)-4-cyclopropyloxy-1-(oxetan-2-ylmethyl)-1H-benzo[d]imidazole-6-carboxylic acid] | 2.2 pM | – |
| COc1cc(C(=O)O)cc2c1nc(CN1CCC(c3cccc(OCc4ccc(C#N)c5c4OCC5)n3)CC1)n2C[C@@H]1CCO1 [Compound 15, (S)-2-((4-(6-((4-cyano-2,3-dihydrobenzofuran-7-yl)methoxy)pyridin-2-yl)piperidin-1-yl)methyl)-4-methoxy-1-(oxetan-2-ylmethyl)-1H-benzo[d]imidazole-6-carboxylic acid] | 1.9 pM | – |
| COc1cc(C(=O)O)cc2c1nc(CN1CCC(c3cccc(OCc4ccc(Cl)c5c4OCC5)n3)CC1)n2C[C@@H]1CCO1 [Compound 16, (S)-2-((4-(6-((4-chloro-2,3-dihydrobenzofuran-7-yl)methoxy)pyridin-2-yl)piperidin-1-yl)methyl)-4-methoxy-1-(oxetan-2-ylmethyl)-1H-benzo[d]imidazole-6-carboxylic acid] | 3.3 pM | – |
| CCOc1cc(C(=O)O)cc2c1nc(CN1CCN(c3cccc(OCc4ccc(Cl)cc4F)n3)C=N1)n2C[C@@H]1CCO1 [Compound 21, (S)-2-((4-(6-((4-chloro-2-fluorobenzyl)oxy)pyridin-2-yl)-5,6-dihydro-1,2,4-triazin-1(4H)-yl)methyl)-4-ethoxy-1-(oxetan-2-ylmethyl)-1H-benzo[d]imidazole-6-carboxylic acid] | 1 pM | – |
| COc1cc(C(=O)O)cc2c1nc(CN1CCN(c3cccc(OCc4ccc(C(F)(F)F)cc4F)n3)C=N1)n2C[C@@H]1CCO1 [Compound 22, (S)-2-((4-(6-((2-fluoro-4-(trifluoromethyl)benzyl)oxy)pyridin-2-yl)-5,6-dihydro-1,2,4-triazin-1(4H)-yl)methyl)-4-methoxy-1-(oxetan-2-ylmethyl)-1H-benzo[d]imidazole-6-carboxylic acid] | 8.5 pM | – |
| CCOc1cc(C(=O)O)cc2c1nc(CN1CCN(c3cccc(OCc4ccc(C(F)(F)F)cc4F)n3)C=N1)n2C[C@@H]1CCO1 [Compound 24, (S)-4-ethoxy-2-((4-(6-((2-fluoro-4-(trifluoromethyl)benzyl)oxy)pyridin-2-yl)-5,6-dihydro-1,2,4-triazin-1(4H)-yl)methyl)-1-(oxetan-2-ylmethyl)-1H-benzo[d]imidazole-6-carboxylic acid] | 5.3 pM | – |
| O=C(O)c1cc(OC2CC2)c2nc(CN3CCN(c4cccc(OCc5ccc(Cl)cc5F)n4)C=N3)n(C[C@@H]3CCO3)c2c1 [Compound 25, (S)-2-((4-(6-((4-chloro-2-fluorobenzyl)oxy)pyridin-2-yl)-5,6-dihydro-1,2,4-triazin-1(4H)-yl)methyl)-4-cyclopropyloxy-1-(oxetan-2-ylmethyl)-1H-benzo[d]imidazole-6-carboxylic acid] | 11.8 pM | – |
| [2H]C([2H])([2H])Oc1cc(C(=O)O)cc2c1nc(CN1CCN(c3cccc(OCc4ccc(Cl)cc4F)n3)C=N1)n2C[C@@H]1CCO1 [Compound 26, (S)-2-((4-(6-((4-chloro-2-fluorobenzyl)oxy)pyridin-2-yl)-5,6-dihydro-1,2,4-triazin-1(4H)-yl)methyl)-4-(methoxy-d3)-1-(oxetan-2-ylmethyl)-1H-benzo[d]imidazole-6-carboxylic acid] | 9.3 pM | – |
| COc1cc(C(=O)O)cc2c1nc(CN1CCC(c3cccc(OCc4ccc(C(F)(F)F)cc4F)n3)CC1)n2C[C@@H]1CCO1 [Compound 27, (S)-2-((4-(6-((2-fluoro-4-(trifluoromethyl)benzyl)oxy)pyridin-2-yl)piperidin-1-yl)methyl)-4-methoxy-1-(oxetan-2-ylmethyl)-1H-benzo[d]imidazole-6-carboxylic acid] | 8.7 pM | – |
| CCOc1cc(C(=O)O)cc2c1nc(CN1CCC(c3cccc(OCc4ccc(C(F)(F)F)cc4F)n3)CC1)n2C[C@@H]1CCO1 [Compound 28, (S)-4-ethoxy-2-((4-(6-((2-fluoro-4-(trifluoromethyl)benzyl)oxy)pyridin-2-yl)piperidin-1-yl)methyl)-1-(oxetan-2-ylmethyl)-1H-benzo[d]imidazole-6-carboxylic acid] | 7.4 pM | – |
| CCOc1cc(C(=O)O)cc2c1nc(CN1CCC(c3cccc(OCc4ccc(Cl)cc4F)n3)CC1)n2C[C@@H]1CCO1 [Compound 29, (S)-2-((4-(6-((4-chloro-2-fluorobenzyl)oxy)pyridin-2-yl)piperidin-1-yl)methyl)-4-ethoxy-1-(oxetan-2-ylmethyl)-1H-benzo[d]imidazole-6-carboxylic acid] | 2.2 pM | – |
| COc1cc(C(=O)O)cc2c1nc(CN1CCN(c3cccc(OCc4ccc(Cl)cc4F)n3)CC1)n2C[C@@H]1CCO1 [Compound 30, (S)-2-((4-(6-((4-chloro-2-fluorobenzyl)oxy)pyridin-2-yl)piperazin-1-yl)methyl)-4-methoxy-1-(oxetan-2-ylmethyl)-1H-benzo[d]imidazole-6-carboxylic acid] | 9.6 pM | – |
| COc1cc(C(=O)O)cc2c1nc(CN1CCC(c3cccnc3OCc3ccc(Cl)cc3F)CC1)n2C[C@@H]1CCO1 [Compound 31, (S)-2-((4-(2-((4-chloro-2-fluorobenzyl)oxy)pyridin-3-yl)piperidin-1-yl)methyl)-4-methoxy-1-(oxetan-2-ylmethyl)-1H-benzo[d]imidazole-6-carboxylic acid] | 37 pM | – |
| CCOc1cc(C(=O)O)cc2c1nc(CN1CCC(c3cccnc3OCc3ccc(Cl)cc3F)CC1)n2C[C@@H]1CCO1 [Compound 32, (S)-2-((4-(2-((4-chloro-2-fluorobenzyl)oxy)pyridin-3-yl)piperidin-1-yl)methyl)-4-ethoxy-1-(oxetan-2-ylmethyl)-1H-benzo[d]imidazole-6-carboxylic acid] | 14.2 pM | – |
| CCOc1cc(C(=O)O)cc2c1nc(CN1CCC(c3cccnc3OCc3ccc(C#N)cc3F)CC1)n2C[C@@H]1CCO1 [Compound 33, (S)-2-((4-(2-((4-cyano-2-fluorobenzyl)oxy)pyridin-3-yl)piperidin-1-yl)methyl)-4-ethoxy-1-(oxetan-2-ylmethyl)-1H-benzo[d]imidazole-6-carboxylic acid] | 46.7 pM | – |
